Measurements published in patent publication US4340539A, “Derivatives of 6-bromo penicillanic acid” (priority 1980, dated 1982).
Where two headings read alike, the source gives them in different places.

Assays:
[1] = tested on: S. pneumoniae; assay: Antibacterial activity (MIC); type: cell-based; conditions: Streptococcus pneumoniae; strain A-9585
[2] = tested on: S. pyogenes; assay: Antibacterial activity (MIC); type: cell-based; conditions: Streptococcus pyogenes; strain A-9604
[3] = tested on: S. aureus; assay: Antibacterial activity (MIC); type: cell-based; conditions: Staphylococcus aureus
[4] = tested on: S. faecalis; assay: Antibacterial activity (MIC); type: cell-based; conditions: Enterococcus faecalis; strain A20688
[5] = tested on: E. coli; assay: Antibacterial activity (MIC); type: cell-based; conditions: Escherichia coli
[6] = tested on: K. pneumoniae; assay: Antibacterial activity (MIC); type: cell-based
[7] = tested on: P. mirabilis; assay: Antibacterial activity (MIC); type: cell-based; conditions: Proteus mirabilis; strain A-9900
[8] = tested on: P. vulgaris; assay: Antibacterial activity (MIC); type: cell-based; conditions: Proteus vulgaris; strain A21559
[9] = tested on: P. morganii; assay: Antibacterial activity (MIC); type: cell-based; conditions: Morganella morganii; strain A15153
[10] = tested on: P. rettgeri; assay: Antibacterial activity (MIC); type: cell-based; conditions: Providencia rettgeri; strain A21203
[11] = tested on: S. marcescens; assay: Antibacterial activity (MIC); type: cell-based; conditions: Serratia marcescens; strain A20019
[12] = tested on: E. cloacae; assay: Antibacterial activity (MIC); type: cell-based; conditions: Enterobacter cloacae
[13] = tested on: P. aeruginosa; assay: Antibacterial activity (MIC); type: cell-based
[14] = tested on: B. fragilis; assay: Anti-Bacteroides activity (MIC, agar dilution), alone and in combination with BL-P2013; type: cell-based
[15] = tested on: B. thetaiotaomicron; assay: as above; type: cell-based
Protocol: *Minimum inhibitory concentration (MIC) determined by the agar dilution
method using 50X dilutions of 24 hour cultures as inocula dispensed by th
Steer's inoculator. Assay medium composed of Brucella Agar plus 5% laked
sheep blood and 10 mcg/ml vitamin K.

[16] = tested on: Bacteroides species; assay: as above; type: cell-based
[17] = tested on: S. aureus A-9606; assay: Therapeutic efficacy in mice experimentally infected with a beta-lactamase strain of Staphylococcus aureus (Table 3); type: in vivo; conditions: for ED50: Staphylococcus aureus, A9606, challenge 5 × 10^8, read-out: PD50/Treatment
Protocol: Treatment schedule: Drugs administered 0 and 2 hours postinfection.

[18] = Blood levels after oral administration to mice (Table 4); type: in vivo; conditions: mouse; for concentration at 0.5 h: 30 min; for concentration at 1 h: 60 min; for concentration at 2 h: 120 min
[19] = tested on: β-lactamase producing strains of E. coli; assay: animal or person; type: in vivo, mice; conditions: Escherichia coli, in Mus musculus, po
Protocol: (§1) Drugs were administered orally at 0 and 2 hours postinfection.
(§2) Drugs were suspended in TCMC.

[20] = tested on: β-lactamase producing strains of S. aureus; assay: animal or person; type: in vivo, mice; conditions: Staphylococcus aureus, in Mus musculus, po
Protocol: as §1, §2

[21] = tested on: β-lactamases; assay: Inhibition of β-lactamases; type: biochemical
[22] = tested on: bacteria; assay: Antibacterial activity (statement); type: cell-based
[23] = tested on: β-lactamase-producing bacteria; assay: Protection of ceforanide and amoxicillin from destruction by β-lactamase-producing bacteria; conditions: in vitro and in vivo, in combination
[24] = 100 mg/kg, oral 100 mg/kg, assay organism E. coli A-9675, read-out: Blood level
[25] = 100 mg/kg, oral 100 mg/kg, assay organism S. aureus A-9606, read-out: Blood level
[26] = 200 mg/kg, oral 200 mg/kg, assay organism S. aureus A-9606, read-out: Blood level

CC1(CCl)C(C(=O)O)N2C(=O)CC2S1(=O)=O (stereo not drawn) [BL-P2013, Potassium 2β-Chloromethyl-2α-methylpenam-3α-carboxylate Sulfone]
MIC [1]: 16 µg/mL
MIC [2]: 63 µg/mL
MIC ([3]; strain A15097, Meth-Res): > 125 µg/mL
MIC ([3]; strain A-9537): > 125 µg/mL
MIC ([3]; strain A-9537, + 50% serum): > 125 µg/mL
MIC ([3]; strain A-9606, Pen-Res): > 125 µg/mL
MIC [4]: > 125 µg/mL
MIC ([5]; strain A15119): > 125 µg/mL
MIC ([5]; strain A20341-1): > 125 µg/mL
MIC ([6]; Klebsiella pneumoniae, strain A15130, read-out: MIC): > 125 µg/mL
MIC ([6]; strain A20468): > 125 µg/mL
MIC [7]: > 125 µg/mL
MIC [8]: > 125 µg/mL
MIC [9]: > 125 µg/mL
MIC [10]: > 125 µg/mL
MIC [11]: > 125 µg/mL
MIC ([12]; strain A-9656): > 125 µg/mL
MIC ([12]; strain A-9659): > 125 µg/mL
MIC ([13]; Pseudomonas aeruginosa, strain A-9843A, read-out: MIC): > 125 µg/mL
MIC ([13]; strain A21213): > 125 µg/mL
MIC ([14]; strain A21875, β-lactamase +): 63 µg/mL
MIC ([14]; strain A21916, β-lactamase +, read-out: MIC): > 125 µg/mL
MIC ([14]; strain A22021, β-lactamase +, read-out: MIC): 32 µg/mL
MIC ([14]; strain A22053, β-lactamase +): 63 µg/mL
MIC ([14]; strain A22533, β-lactamase +, read-out: MIC): 32 µg/mL
MIC ([14]; strain A22534, β-lactamase +, read-out: MIC): 125 µg/mL
MIC ([14]; strain A22535, β-lactamase +, read-out: MIC): 125 µg/mL
MIC ([14]; strain A22693, β-lactamase +): 63 µg/mL
MIC ([14]; strain A22694, β-lactamase +): 63 µg/mL
MIC ([14]; strain A22695, β-lactamase +, read-out: MIC): 32 µg/mL
MIC ([14]; strain A22696, β-lactamase +): 63 µg/mL
MIC ([14]; strain A22697, β-lactamase +): 63 µg/mL
MIC ([14]; strain A22792, β-lactamase +, read-out: MIC): 32 µg/mL
MIC ([14]; strain A22793, β-lactamase +, read-out: MIC): 32 µg/mL
MIC ([14]; strain A22794, β-lactamase +, read-out: MIC): 32 µg/mL
MIC ([14]; strain A22795, β-lactamase +, read-out: MIC): 32 µg/mL
MIC ([14]; strain A22797, β-lactamase +): 63 µg/mL
MIC ([14]; strain A22798, β-lactamase +): 63 µg/mL
MIC ([15]; Bacteroides thetaiotaomicron, strain A22277, β-lactamase +, read-out: MIC): 63 µg/mL
MIC ([15]; strain A22279, β-lactamase +): 63 µg/mL
MIC ([16]; Bacteroides): 63 µg/mL
MIC ([16]; Bacteroides, strain A20929, β-lactamase +, read-out: MIC): 32 µg/mL
MIC ([16]; Bacteroides, strain A20930, β-lactamase +, read-out: MIC): 125 µg/mL
MIC ([16]; Bacteroides, strain A20931, β-lactamase +, read-out: MIC): 32 µg/mL
MIC ([16]; Bacteroides, strain A20934, β-lactamase +, read-out: MIC): 32 µg/mL
MIC ([16]; Bacteroides, strain A20935, β-lactamase -, read-out: MIC): 125 µg/mL
MIC ([16]; Bacteroides, strain A21959, β-lactamase +, read-out: MIC): 32 µg/mL
MIC ([16]; strain A20927-1, β-lactamase -): 63 µg/mL
MIC ([16]; strain A20933, β-lactamase +): 63 µg/mL
PD50/Treatment ([17]; IM, challenge 7 × 10^8): > 50 mg/kg
ED50 ([17]; IM): > 50 mg/kg
ED50 ([17]; PO): > 200 mg/kg
concentration at […] ([18]; 100 mg/kg, oral 100 mg/kg, 15 min, assay organism E. coli A-9675, read-out: Blood level): 4500 ng/mL
concentration at […] ([18]; 100 mg/kg, oral 100 mg/kg, 15 min, assay organism S. aureus A-9606, read-out: Blood level): 4600 ng/mL
concentration at 0.5 h [18, 24]: 5100 ng/mL
concentration at 0.5 h [18, 25]: 4100 ng/mL
concentration at 1 h [18, 25]: 3000 ng/mL
concentration at […] ([18]; 100 mg/kg, oral 100 mg/kg, 90 min, assay organism E. coli A-9675, read-out: Blood level): 2300 ng/mL
concentration at […] ([18]; 100 mg/kg, oral 100 mg/kg, 90 min, assay organism S. aureus A-9606, read-out: Blood level): < 2600 ng/mL
concentration at 2 h [18, 24]: 1500 ng/mL
concentration at 2 h [18, 25]: < 2600 ng/mL
concentration at […] ([18]; 100 mg/kg, oral 100 mg/kg, 150 min, assay organism S. aureus A-9606, read-out: Blood level): < 2600 ng/mL
half-life ([18]; 100 mg/kg, oral 100 mg/kg, assay organism E. coli A-9675): 50 min
concentration at […] ([18]; 200 mg/kg, oral 200 mg/kg, 15 min, assay organism S. aureus A-9606, read-out: Blood level): 7400 ng/mL
concentration at 0.5 h [18, 26]: 9800 ng/mL
concentration at 1 h [18, 26]: 7100 ng/mL
concentration at […] ([18]; 200 mg/kg, oral 200 mg/kg, 90 min, assay organism S. aureus A-9606, read-out: Blood level): 4100 ng/mL
concentration at 2 h [18, 26]: 2800 ng/mL
concentration at […] ([18]; 200 mg/kg, oral 200 mg/kg, 150 min, assay organism S. aureus A-9606, read-out: Blood level): < 2600 ng/mL
half-life ([18]; 200 mg/kg, oral 200 mg/kg, assay organism S. aureus A-9606): 50 min
ED50 ([19]; read-out: PD50/Treatment, oral, E. coli A9675, challenge 6 × 10^5): > 200 mg/kg
ED50 ([19]; read-out: PD50/Treatment, oral, E. coli A9675, challenge 7 × 10^5): > 100 mg/kg
ED50 ([19]; read-out: PD50/Treatment, oral, E. coli A9675, challenge 8 × 10^5): > 200 mg/kg
ED50 ([19]; read-out: PD50/Treatment, oral, E. coli A20649, challenge 5 × 10^5): > 200 mg/kg
ED50 ([19]; read-out: PD50/Treatment, oral, E. coli A20649, challenge 6 × 10^5): > 200 mg/kg
ED50 ([19]; read-out: PD50/Treatment, oral, E. coli A21223, challenge 6 × 10^5): > 200 mg/kg
ED50 ([19]; read-out: PD50/Treatment, oral, E. coli A21223, challenge 7 × 10^5 (first line)): > 200 mg/kg
ED50 ([19]; read-out: PD50/Treatment, oral, E. coli A21223, challenge 7 × 10^5 (third line)): > 200 mg/kg
ED50 ([20]; read-out: PD50/Treatment, oral, S. aureus A9606, challenge 2 × 10^9): > 200 mg/kg
ED50 ([20]; read-out: PD50/Treatment, oral, S. aureus A9606, challenge 7 × 10^8): > 200 mg/kg
ED50 ([20]; read-out: PD50/Treatment, oral, S. aureus A15091, challenge 4 × 10^8): > 200 mg/kg
ED50 ([20]; read-out: PD50/Treatment, oral, S. aureus A15091, challenge 5 × 10^8): > 200 mg/kg
ED50 ([20]; read-out: PD50/Treatment, oral, S. aureus A20379, challenge 5 × 10^8): > 200 mg/kg
ED50 ([20]; read-out: PD50/Treatment, oral, S. aureus A20379, challenge 6 × 10^8): 174 mg/kg
β-lactamase inhibition [21]: inhibits β-lactamases
antibacterial activity [22]: at best a very weak antibacterial agent
protection of ceforanide and amoxicillin from destruction [23]: protected ceforanide and amoxicillin from destruction by β-lactamase-producing bacteria in vitro and in vivo
